Measurements reported in patent US20240383882A1 (Ecstasy LLC, priority 2020, published 2024).
Like-named read-outs stand apart in the source and are kept apart here.

System: male C57BL/6 mice
Assay: 55° C. warm-water tail-flick test (antinociception)
Assay type: in vivo
Conditions: for ED50: Mus musculus
Experimental: Antinociception was assessed using the 55° C. warm-water tail-flick test. The latency to the first sign of a rapid tail flick was taken as the behavioral endpoint. Each mouse was first tested for baseline latency by immersing its tail in the water and recording the time to response. Mice not responding within 2 secs were excluded from further testing. Responsive mice were then s.c. administered the test compound and tested for antinociception at 30 min, 60 min, 90 min, and 120 min time points afterward. Antinociception was calculated using the following formula: percentage of antinociception=100×(test latency−control latency)/(20−control latency).
The following new compounds were also made and tested to determine the half maximal possible effective dose, or ED50 (mg/kg), in mice, using one of: the warm water tail-flick test as in Table II, spared nerve injury, chronic constriction injury, or Complete Freund's adjuvant induced inflammatory pain. The symbols in the last column are: + indicates ED 50>50 mg/kg; ++ indicates ED 50 is less than or equal to 30 mg/kg.

[1] = half maximal effective dose in mice, using one of: warm water tail-flick test, spared nerve injury, chronic constriction injury, or Complete Freund's adjuvant induced inflammatory pain (not stated which per compound), read-out: Biological Activity (ED50)
[2] = sc, 0.5 h, compounds of Table I, s.c., 30 min, 55° C. water, configuration tested as in Table II, read-out: ED50 (mg/kg) at 30 min on C57BL/6 mice in Warm-water Tail-flick Test

## CC1(C)COC1[C@]1(CCc2ccc(C#N)cc2)CCN(Cc2ccc(Cl)cc2)C1 (single isomer, unassigned) [Compound 195, 4-(2-((R)-1-(4-chlorobenzyl)-3-((R or S)-3,3-dimethyloxetan-2-yl)pyrrolidin-3-yl)ethyl) benzonitrile]
[1]
  ED50: ≤ 30 mg/kg

## CC(O)[C@]1(CCc2ccc(S(C)(=O)=O)cc2)CCN(C(C)(C)c2ccc(Cl)cc2)C1 (single isomer, unassigned) [Compound 219, (R or S)-1-((R)-1-(2-(4-chlorophenyl)propan-2-yl)-3-(4-(methylsulfonyl)phenethyl)pyrrolidin-3-yl)ethan-1-ol]
[1]
  ED50: > 50 mg/kg

## CC(C)(c1ccccn1)N1CC[C@@](CCc2ccc(C#N)cc2)(CNC2(C#N)COC2)C1 [Compound 209, (S)-3-(((3-(4-cyanophenethyl)-1-(2-(pyridin-2-yl)propan-2-yl)pyrrolidin-3-yl)methyl)amino) oxetane-3-carbonitrile]
[1]
  ED50: > 50 mg/kg

## CC1(C)COC1[C@]1(CCc2ccc(C#N)cc2)CCN(Cc2ncc(Cl)cn2)C1 (single isomer, unassigned) [Compound 210, 4-(2-((R)-1-((5-chloropyrimidin-2-yl)methyl)-3-((R or S)-3,3-dimethyloxetan-2-yl)pyrrolidin-3-yl)ethyl)benzonitrile]
[1]
  ED50: > 50 mg/kg

## CC(C)(c1ccccn1)N1CC[C@@](CCc2ccc3ccoc3c2)(COCc2ccccc2)C1 [Compound 164, (R)-2-(2-(3-(2-(benzofuran-6-yl)ethyl)-3-((benzyloxy)methyl)pyrrolidin-1-yl)propan-2-yl)pyridine]
[1]
  ED50: > 50 mg/kg

## CC(C)(c1ccccn1)N1CC[C@@](CCc2ccc(C#N)cc2)(c2nnco2)C1 [Compound 124, (R)-4-(2-(3-(1,3,4-oxadiazol-2-yl)-1-(2-(pyridin-2-yl)propan-2-yl)pyrrolidin-3-yl)ethyl) benzonitrile]
[1]
  ED50: > 50 mg/kg

## CC(C)(c1ccccn1)N1CC[C@@](CCc2ccc(C#N)c(F)c2)(C(O)C(F)(F)F)C1 (single isomer, unassigned) [Compound 103, 2-fluoro-4-(2-((R)-1-(2-(pyridin-2-yl)propan-2-yl)-3-((R or S)-2,2,2-trifluoro-1-hydroxyethyl)pyrrolidin-3-yl)ethyl) benzonitrile]
[1]
  ED50: > 50 mg/kg

## CCOC(C(F)(F)F)(C(F)(F)F)[C@]1(CCc2ccc(C#N)s2)CCN(C(C)(C)c2ccccn2)C1 [Compound 161, (R)-5-(2-(3-(2-ethoxy-1,1,1,3,3,3-hexafluoropropan-2-yl)-1-(2-(pyridin-2-yl)propan-2-yl)pyrrolidin-3-yl)ethyl)thiophene-2-carbonitrile]
[1]
  ED50: > 50 mg/kg

## COC[C@@]1(CCc2ccc(S(C)(=O)=O)cc2)CCN(C(C)(C)c2ccc(Cl)cc2)C1 [Compound 43]
[1]
  ED50: > 50 mg/kg

## CCOC[C@]1(CCc2ccc(F)cc2)CCN(Cc2ccc(OC)nc2)C1 [Compound 1, (R)-5-((3-(ethoxymethyl)-3-(4-fluorophenethyl)pyrrolidin-1-yl)methyl)-2-methoxypyridine]
[1]
  ED50: > 50 mg/kg

## CCOC(C(F)(F)F)[C@]1(CCc2ccc(C#N)cc2)CCN(C(C)(C)c2ccc(C)nc2)C1 (single isomer, unassigned) [Compound 170, 4-(2-((R)-3-((R or S)-1-ethoxy-2,2,2-trifluoroethyl)-1-(2-(6-methylpyridin-3-yl)propan-2-yl)pyrrolidin-3-yl)ethyl) benzonitrile]
[1]
  ED50: > 50 mg/kg

## Cc1ccc(C(C)(C)N2CCC(CCc3ccc(F)s3)(CNS(C)(=O)=O)C2)cn1 (single isomer, unassigned) [Compound 313]
[2]
  ED50: ≤ 30 mg/kg

## Cc1ccc(C(C)(C)N2CCC(CCc3ccc(F)s3)(CNS(=O)(=O)N(C)C)C2)cn1 (single isomer, unassigned) [Compound 121]
[2]
  ED50: ≤ 30 mg/kg

## Cc1cccc(C(C)(C)N2CC[C@](CO)(CCc3ccc(C#N)cc3)C2)n1 [Compound 144, (R)-4-(2-(3-(hydroxymethyl)-1-(2-(6-methylpyridin-2-yl)propan-2-yl)pyrrolidin-3-yl)ethyl) benzonitrile]
[1]
  ED50: > 50 mg/kg

## CC(C)(c1ccccn1)N1CC[C@@](CCc2ccc(C#N)s2)(C(O)C(F)(F)F)C1 (single isomer, unassigned) [Compound 153, 5-(2-((R)-1-(2-(pyridin-2-yl)propan-2-yl)-3-((R or S)-2,2,2-trifluoro-1-hydroxyethyl)pyrrolidin-3-yl)ethyl)thiophene-2-carbonitrile]
Half maximal effective dose in mice, using one of: warm water tail-flick test, spared nerve injury, chronic constriction injury, or Complete Freund's adjuvant induced inflammatory pain (not stated which per compound)
  Biological Activity (ED50): + (+ indicates ED 50>50 mg/kg)

## CC(C)(c1ccccn1)N1CC[C@@](CCc2ccc(C#N)cc2)(COCc2ccccc2)C1 [Compound 131, (R)-4-(2-(3-((benzyloxy)methyl)-1-(2-(pyridin-2-yl)propan-2-yl)pyrrolidin-3-yl)ethyl) benzonitrile]
[1]
  ED50: > 50 mg/kg

## CCOC(C(F)(F)F)(C(F)(F)F)[C@]1(CCc2ccc(C#N)cc2)CCN(Cc2ccc(C)nc2)C1 [Compound 8, (R)-4-(2-(3-(2-ethoxy-1,1,1,3,3,3-hexafluoropropan-2-yl)-1-((6-methylpyridin-3-yl)methyl)pyrrolidin-3-yl)ethyl) benzonitrile]
[1]
  ED50: > 50 mg/kg

## CCOC[C@]1(CCc2cccc(C#N)c2)CCN(C(C)(C)c2ccccn2)C1 [Compound 128, (R)-3-(2-(3-(ethoxymethyl)-1-(2-(pyridin-2-yl)propan-2-yl)pyrrolidin-3-yl)ethyl) benzonitrile]
[1]
  ED50: > 50 mg/kg

## N#Cc1ccc(CC[C@]2(CO)CCN(C(c3ccc(F)cc3)c3cccnc3)C2)cc1 (stereo partly shown) [Compound 64]
[1]
  ED50: > 50 mg/kg

## Cc1cccc(C(C)(C)N2CC[C@@](CCc3ccc(C#N)cc3)(C(N)=O)C2)n1 [Compound 149, (R)-3-(4-cyanophenethyl)-1-(2-(6-methylpyridin-2-yl)propan-2-yl)pyrrolidine-3-carboxamide]
[1]
  ED50: > 50 mg/kg

## CC(C)(c1ccc(Cl)cc1)N1CC[C@@](CCc2ccc(S(C)(=O)=O)cc2)(COCc2ccccc2)C1 [Compound 37, (R)-3-((benzyloxy)methyl)-1-(2-(4-chlorophenyl)propan-2-yl)-3-(4-(methylsulfonyl)phenethyl) pyrrolidine]
[1]
  ED50: > 50 mg/kg

## CCOC(C(F)(F)F)(C(F)(F)F)[C@]1(CCc2ccc(C#N)cc2)CCN(Cc2cccnc2)C1 [Compound 9, (R)-4-(2-(3-(2-ethoxy-1,1,1,3,3,3-hexafluoropropan-2-yl)-1-(pyridin-3-ylmethyl)pyrrolidin-3-yl)ethyl) benzonitrile]
[1]
  ED50: > 50 mg/kg

## CC(C)(c1ccccn1)N1CC[C@](CCc2ccc(C#N)cc2)(C(O)C(F)(F)F)C1 (single isomer, unassigned) [Compound 223]
[1]
  ED50: > 50 mg/kg

## Cc1cccc(C(C)(C)N2CC[C@@](CCc3ccc(C#N)cc3)(C(=O)O)C2)n1 [Compound 145, (R)-3-(4-cyanophenethyl)-1-(2-(6-methylpyridin-2-yl)propan-2-yl)pyrrolidine-3-carboxylic acid]
[1]
  ED50: > 50 mg/kg

## CCOC(C(F)(F)F)(C(F)(F)F)[C@]1(/C=C/c2ccc3nonc3c2)CCN(C(C)(C)c2ccc(C)nc2)C1 [Compound 186, (S,E)-5-(2-(3-(2-ethoxy-1,1,1,3,3,3-hexafluoropropan-2-yl)-1-(2-(6-methylpyridin-3-yl)propan-2-yl)pyrrolidin-3-yl)vinyl)benzo[c] [1,2,5]oxadiazole]
[1]
  ED50: ≤ 30 mg/kg

## CC(C)(c1ccccn1)N1CC[C@@](CCc2cccc(C#N)c2)(C(O)C(F)(F)F)C1 (single isomer, unassigned) [Compound 134, 3-(2-((R)-1-(2-(pyridin-2-yl)propan-2-yl)-3-((R or S)-2,2,2-trifluoro-1-hydroxyethyl)pyrrolidin-3-yl)ethyl) benzonitrile]
[1]
  ED50: > 50 mg/kg

## COc1ccc(CN2CC[C@@](CCc3ccc(C#N)cc3)(C3OCC3(C)C)C2)cc1 (single isomer, unassigned) [Compound 205, 4-(2-((R)-3-((R or S)-3,3-dimethyloxetan-2-yl)-1-(4-methoxybenzyl)pyrrolidin-3-yl)ethyl) benzonitrile]
[1]
  ED50: ≤ 30 mg/kg

## Cc1ccc(CN2CC[C@@](CCc3ccc(C#N)cc3)(C3OCC3(C)C)C2)cn1 (single isomer, unassigned) [Compound 194, 4-(2-((R)-3-((R or S)-3,3-dimethyloxetan-2-yl)-1-((6-methylpyridin-3-yl)methyl)pyrrolidin-3-yl)ethyl) benzonitrile]
[1]
  ED50: ≤ 30 mg/kg

## CC(C)c1nc(C(C)(C)N2CC[C@@](CCc3ccc(S(C)(=O)=O)cc3)(C3CCCO3)C2)cs1 (single isomer, unassigned) [Compound 29, 2-isopropyl-4-(2-((R)-3-(4-(methylsulfonyl)phenethyl)-3-((R or S)-tetrahydrofuran-2-yl)pyrrolidin-1-yl)propan-2-yl)thiazole]
[1]
  ED50: ≤ 30 mg/kg

## CC(C)(c1ccsc1)N1CCC(CCc2cccs2)(C2CCCO2)C1 (single isomer, unassigned) [Compound 24]
sc, 0.5 h, compounds of Table III, s.c., 30 min, 55° C. water, configuration tested as in Table IV, read-out: ED50 (mg/kg) at 30 min on C57BL/6 mice in Warm-water Tail-flick Test (same as Table II)
  ED50: ≤ 30 mg/kg

## CC(C)(c1ccccn1)N1CC[C@@](CCc2ccc3ccoc3c2)(C(O)C(F)(F)F)C1 (single isomer, unassigned) [Compound 172, (R or S)-1-((R)-3-(2-(benzofuran-6-yl)ethyl)-1-(2-(pyridin-2-yl)propan-2-yl)pyrrolidin-3-yl)-2,2,2-trifluoroethan-1-ol]
[1]
  ED50: > 50 mg/kg
